# Results as given in US10342867B2 (priority 2014, dated 2019).
# Marks after values point to notes of the source that are not given here.
# Tests used:
# [1] = rabbit, in vivo
# [2] = rabbit, in vivo; remark: listed apart in the source
substance,measurement,setting,value
"Monosulphate Heptadodecyl Sucrose [S12, reference compound]","Body temperature one day after the first immunization, Mean",[1],39.4^a ° C.
same,"Body temperature one day after the second immunization, Mean",[1],39.7^a ° C.
same,rise in body temperature one day after the first and second immunization,[1],about 0.5 °C
same,Number of animals demonstrating a detectable adverse local reaction four weeks after the first immunization,[2],1/6 (redness)
same,Number of animals demonstrating a detectable adverse local reaction one week after the second immunization,[2],2/6 (redness/swelling)
